Test results as given in US20070089847A1, “Anti-microbial paper products having a substituted 1,2-dihydroquinoline” (Novus International, Inc., priority 2005, published 2007).

Columns and labels:
Assay type in all cases: cell-based
[1] = system: Aspergillus niger ATCC 9642, Aspergillus flavus ATCC 9643, and Chaetomium globosum ATCC 6205; assay: ASTM D 2020 fungal resistance test of five biocides on treated glass fiber filter paper (Example 1); details: for Observed Fungal Growth after 14 Days incubation at 28° C., 1: replicate 1; for Observed Fungal Growth after 14 Days incubation at 28° C., 2: replicate 2; for Observed Fungal Growth after 14 Days incubation at 28° C., 3: replicate 3
Method: (§1) Five different biocides at varying concentrations were tested for fungal resistance using the ASTM D 2020 Standard Test Method for Mildew (Fungus) Resistance of Paper and Paperboard protocol. This test method was designed for the qualitative determination of mildew (fungus) resistance of paper and paperboard, particularly those types that have been given a fungus resistant treatment. Specific test conditions applied to this project are described below, but at all times the ASTM D 2020 test protocol was strictly followed.
All five biocides (Santoquin®, HMTBA-Cu, BIOX-AUSD, Tox-Guard*Dry, and Metasol-TK 100) were tested at three different concentrations (200, 400, and 600 ppm). Santoquin®, HMTBA-Cu, and BIOX-AUSD were diluted in dimethyl sulfoxide (DMSO), while Tox-Guard*Dry and Metasol-TK100 were diluted in water. DMSO was used a control diluent. The fungal inoculum was comprised of three different species: Aspergillus niger ATCC 9642, Aspergillus flavus ATCC 9643, and Chaetomium globosum ATCC 6205.
(§2) Glass fiber filter paper was treated with the individual test biocides at the respective concentrations listed in Table 1 and allowed to dry overnight. The filter paper carriers, tested in triplicate, were placed in Petri dishes on mineral salts agar and inoculated with the fungal inoculum. The samples were incubated at 28° C. for 2 weeks and examined daily during the first week of incubation for the growth of the test organisms.
(§3) If no growth was observed on a sample after the first week of incubation, the sample was incubated for an additional seven days. […] If, after two weeks, there was no detectable growth of test organisms, the sample was considered fungus resistant.

[2] = system: Aspergillus niger ATCC 9642 and Aspergillus flavus ATCC 9643; assay: In vitro disk assay of antifungal properties, agar plates containing test agent (Example 3); details: 48 hours at 25° C.
Method: In this assay, paper disks were soaked in a fungal solution and placed on the surface of agar plates containing different concentration of the test agent. The radius of fungal growth radiating from each disk was considered indicative of the degree of inhibition by the agent relative to a control.
The test agents were diluted in DMSO or water and tested at several different concentrations. The test agents were added to the agar solution after sterilization, but prior to solidification. […] The plates were incubated for 48 hours at 25° C. The zones of fungal growth (or no growth) were analyzed and the minimum total inhibitory concentration (%) was estimated for each agent.

[3] = system: Aspergillus niger ATCC 9642, Aspergillus flavus ATCC 9643, and Chaetomium globosum ATCC 6205; assay: ASTM D 2020 fungal resistance test of Santoquin with Kathon 893 as control biocide (Example 2); details: for Observed Fungal Growth after 14 Days incubation at 28° C.: replicates 1-3
Method: as §1, with “One biocide sample, labeled Santoquin® was” for “Five different biocides at varying concentrations were”
The Santoquin® biocide was diluted with DMSO and tested at two different concentrations: 0.1% and 1.0%. The biocide Kathon 893 was diluted to 0.1% and 1.0% in water and used as a control biocide. DMSO was used as a control diluent. The fungal inoculum was comprised of three different species: Aspergillus niger ATCC 9642, Aspergillus flavus ATCC 9643, and Chaetomium globosum ATCC 6205.
as §2, with “two different” for “the individual test biocides at the respective”, “(0.1% and 1.0%) of Santoquin®” for “listed in Table 1”
as §3

[4] = all three concentrations (200, 400, and 600 ppm)
[5] = both concentrations (0.1% and 1.0%)

SMILES	Observed Fungal Growth after 14 Days incubation at 28° C., 1 ([1]; 200 ppm)	Observed Fungal Growth after 14 Days incubation at 28° C., 2 ([1]; 200 ppm)	Observed Fungal Growth after 14 Days incubation at 28° C., 3 ([1]; 200 ppm)	Observed Fungal Growth after 14 Days incubation at 28° C., 1 ([1]; 400 ppm)	Observed Fungal Growth after 14 Days incubation at 28° C., 2 ([1]; 400 ppm)	Observed Fungal Growth after 14 Days incubation at 28° C., 3 ([1]; 400 ppm)	Observed Fungal Growth after 14 Days incubation at 28° C., 1 ([1]; 600 ppm)	Observed Fungal Growth after 14 Days incubation at 28° C., 2 ([1]; 600 ppm)	Observed Fungal Growth after 14 Days incubation at 28° C., 3 ([1]; 600 ppm)	fungal growth at the end of the two weeks [1, 4]	fungal resistance classification in the ASTM D 2020 test [1, 4]	Minimum Total Inhibitory Concentration (%) [2]	fungal growth at the end of two weeks ([1]; 200 ppm)	fungal resistance classification in the ASTM D 2020 test ([1]; 200 ppm)	fungal growth at the end of two weeks ([1]; 400 and 600 ppm)	fungal resistance classification in the ASTM D 2020 test ([1]; 400 and 600 ppm)	Observed Fungal Growth after 14 Days incubation at 28° C. ([3]; 0.1%)	Observed Fungal Growth after 14 Days incubation at 28° C. ([3]; 1.0%)	fungal growth at the end of the two weeks [3, 5]	fungal resistance classification in the ASTM D 2020 test [3, 5]
CSCCC(O)C(=O)[O-].CSCCC(O)C(=O)[O-].[Cu+2] (stereo not drawn) [Mintrex Cu, Cu(HMTBA)2]	Growth	Growth	Growth	Growth	Growth	Growth	Growth	Growth	Growth	fungal growth	fungus non-resistant	0.5%	–	–	–	–	–	–	–	–
CCOc1ccc2c(c1)C(C)=CC(C)(C)N2 [Santoquin, 6-ethoxy-1,2-dihydro-2,2,4-trimethylquinoline]	Growth	Growth	Growth	No Growth	No Growth	No Growth	No Growth	No Growth	No Growth	–	–	>0.5%	fungal growth	fungus non-resistant	no fungal growth	fungal resistant	No growth	No growth	no fungal growth	fungal resistant
